The text below walks through data of US20230219912A1, “HALOGENATED BENZOTHIADIAZINES FOR THE TREATMENT OF CANCER” (BOARD OF REGENTS OF THE UNIVERSITY OF NEBRASKA, priority 2020, published 2023).

Values joined by “and” are separate entries in the source; they are usually repeats but may differ in a detail not shown here. Identical values can stand only once. “Also recorded” adds a separate entry of the source. Like-named read-outs stand apart in the source and are kept apart here.

The subject of test [1] is VEGF-induced proliferation of HUVEC cells. In words: VEGF-induced HUVEC proliferation, MTT assay. Type of test: cell-based, human. As to conditions: for inhibition of VEGF-induced HUVEC proliferation (in words): 20 μM; for inhibition at 20 µM: Homo sapiens, HUVEC, 48 h, read-out: % Inhibition of Proliferation. The method, then: The assay was performed as follows. Vascular endothelial growth factor (VEGF, Cat #SRP3182) was purchased from Sigma. […] Stock solutions of all compounds were prepared in DMSO and were serially diluted for cell culture treatment maintaining the final DMSO concentration at less than 1%. Cell proliferation of HUVECs was evaluated through the MTT (3-[4, 5-dimethylthiazol-2-yl]-2, 5-dimethyltetrazolium bromide) colorimetric assay, as previously described.^28 The HUVECs were seeded at a density of 10,000 cells/well in 24 well plates in serum-containing medium and cultured overnight. Cells were starved with 300 μL of assay media (0.1% BSA+0.1% FBS in basal medium) for 24 h. Then, cells were treated with 500 μL of assay medium (control group), VEGF (10 ng/mL, positive control group) or VEGF along with compounds (20 μM). After 48 h of culture, 50 μL of MTT stock (5 mg/mL in PBS) was added to each well and incubated for 2 h at 37° C. to allow the formation of dark blue formazan crystals in the metabolically active cells. The medium was removed, the cells were washed with PBS (pH 7.4), and 100 μL of acidified isopropanol (0.33 mL HCl in 100 mL isopropanol) was added to each well and incubated for 5 min with thorough agitation to solubilize the formazan crystals. An equal volume of the solution was transferred to a 96-well plate and the absorbance was immediately measured using a microplate reader at a wavelength of 570 nm.
Background: Tetrazolium dyes change colour on reduction, which living cells bring about.

Test [2] has as its target T1, Mitochondrial respiratory complex II (Rattus norvegicus, UniProt P21913+Q641Z9+Q6PCT8+Q920L2).
T1 construct: measured spectrophotometrically using isolated rat heart mitochondria; from tissue; host or cells: rat heart mitochondria / sub-mitochondrial particles
In words: Mitochondrial respiratory complex II inhibition assay. It counts as biochemical. As to conditions: 100 μM, relative to DMSO control; for inhibition at 100 µM: read-out: inhibition of CII. The method, then: The assay was performed as follows. Mitochondria were isolated either from fresh rat hearts or by differential centrifugation in sucrose-based buffer as previously described.^24 Complex II enzymatic activity was determined spectrophotometrically as the rate of succinate-driven, co-enzyme Q2-linked reduction of dichlorophenolindophenol (DCPIP).^49 Mitochondria or sub-mitochondrial particles were incubated in phosphate buffer (pH 7.4) containing 40 μM DCPIP, 1 mM KCN, 10 μM rotenone, and 50 μM co-enzyme Q2. The rate of reduction of DCPIP to DCPIPH2 was followed at […] (ε=21,000 M-1). Varying amounts of succinate and inhibitors were used to determine an IC50 value. At the end of each run thenoyltrifluoroacetone (1 mM) was added and the residual TTFA-insensitive rate subtracted.

Setting [3] is: 20 μM compound, VEGF 10 ng/mL, relative to VEGF treated cells, mean ± SEM n = 3.

T1 sequence (Q920L2 35-656): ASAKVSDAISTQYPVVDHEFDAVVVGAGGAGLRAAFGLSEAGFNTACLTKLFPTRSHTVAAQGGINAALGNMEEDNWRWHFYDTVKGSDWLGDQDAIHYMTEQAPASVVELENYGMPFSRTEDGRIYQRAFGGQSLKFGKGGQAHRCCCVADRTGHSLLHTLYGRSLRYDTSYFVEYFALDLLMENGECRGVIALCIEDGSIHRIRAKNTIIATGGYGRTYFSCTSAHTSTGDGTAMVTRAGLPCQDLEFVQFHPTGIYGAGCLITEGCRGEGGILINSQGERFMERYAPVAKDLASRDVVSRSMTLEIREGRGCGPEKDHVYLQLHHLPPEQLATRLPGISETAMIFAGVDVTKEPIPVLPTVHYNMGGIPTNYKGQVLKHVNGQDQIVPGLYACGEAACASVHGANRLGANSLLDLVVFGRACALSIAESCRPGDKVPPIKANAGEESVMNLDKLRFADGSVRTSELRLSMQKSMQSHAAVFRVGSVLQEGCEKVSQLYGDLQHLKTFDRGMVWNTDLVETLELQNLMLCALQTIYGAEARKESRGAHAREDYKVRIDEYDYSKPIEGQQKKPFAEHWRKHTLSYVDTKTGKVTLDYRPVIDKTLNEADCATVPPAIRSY
T1 sequence (P21913 31-282): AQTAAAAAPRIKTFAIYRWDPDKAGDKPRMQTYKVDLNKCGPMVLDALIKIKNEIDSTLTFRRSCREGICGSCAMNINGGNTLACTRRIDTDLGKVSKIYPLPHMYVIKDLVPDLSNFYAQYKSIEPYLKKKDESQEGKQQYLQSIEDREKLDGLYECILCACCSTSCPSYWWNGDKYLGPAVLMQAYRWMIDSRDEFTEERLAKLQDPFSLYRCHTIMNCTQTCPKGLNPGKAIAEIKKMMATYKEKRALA
T1 sequence (Q641Z9 1-169): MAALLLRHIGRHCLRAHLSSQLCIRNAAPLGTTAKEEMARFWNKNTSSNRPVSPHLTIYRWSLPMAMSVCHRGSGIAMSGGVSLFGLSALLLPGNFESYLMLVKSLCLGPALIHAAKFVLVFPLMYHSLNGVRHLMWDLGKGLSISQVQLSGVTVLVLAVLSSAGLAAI
T1 sequence (Q6PCT8 57-159): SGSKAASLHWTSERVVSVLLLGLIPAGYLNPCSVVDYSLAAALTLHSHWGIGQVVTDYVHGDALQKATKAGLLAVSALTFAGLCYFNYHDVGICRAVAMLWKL

Turning to `COc1ccc(CCNC2=NS(=O)(=O)c3cc(F)ccc3N2)cc1` [Compound 9a], the “inhibition of VEGF-induced HUVEC proliferation (in words)” value (“inhibition … (in words)” for short) in test [1] (VEGF 10 ng/mL) was “no appreciable inhibition”. In addition, in test [1], the inhibition at 20 µM worked out at 70 ± 22%.
In the case of `O=C1Nc2cc(Cl)ccc2S(=O)(=O)N1` [Compound 11b, 6-chloro-3-oxo-3,4-dihydro-2H-1,2,4-benzothiadiazine1,1-dioxide], the inhibition at 20 µM in test [1] is 0%.
For `CSC1=NS(=O)(=O)c2ccc(Cl)cc2N1` [Compound 13b, 6-Chloro-3-methylsulfanyl-4H-1,2,4-benzothiadiazine 1,1-Dioxide], in test [1] (setting [3]), the inhibition at 20 µM came out at 21 ± 23%.
As to `CC(C)NC1=NS(=O)(=O)c2ccc(Cl)cc2N1` [Compound 14b, 6-Chloro-3-isopropylamino-4H-1,2,4-benzothiadiazine 1,1-Dioxide], the inhibition at 20 µM in test [1] worked out at 146 ± 18%.
For the compound `O=S1(=O)N=C(NCc2ccc(Cl)cc2)Nc2ccc(Br)cc21` [Compound 16c, 7-bromo-3-((4-chlorobenzyl)amino)-4H-benzo[e][1,2,4]thiadiazine 1,1-dioxide dioxide], in test [2], the “inhibition of CII” value is on record as 45%.
Consider `O=S1(=O)N=C(NCc2ccc(Cl)cc2)Nc2ccccc21` [Compound 16d, 3-((4-chlorobenzyl)amino)-4H-benzo[e][1,2,4]thiadiazine 1,1-dioxide], for which the “inhibition of CII” value in test [2] is “inactive”.
As for `O=S1(=O)N=C(NCc2ccc(F)cc2)Nc2cc(Cl)ccc21` [Compound 17b, 6-chloro-3-((4-fluorobenzyl)amino)-4H-benzo[e][1,2,4]thiadiazine 1,1-dioxide], the inhibition at 20 µM in test [1] (setting [3]) came to 0%.
For `O=S1(=O)N=C(NCCc2ccccc2)Nc2cc(Cl)ccc21` [Compound 18b, 6-chloro-3-(phenethylamino)-4H-benzo[e][1,2,4]thiadiazine 1,1-dioxide], the “inhibition … (in words)” value in test [1] (VEGF 10 ng/mL) is reported as “suppressed HUVEC proliferation; also recorded: enhanced activity”. For the same compound, the inhibition at 20 µM in test [1] came to 118 ± 12%.
For `CCNC1=NS(=O)(=O)c2ccccc2N1` [Compound 19d, 3-(ethylamino)-4H-benzo[e][1,2,4]thiadiazine 1,1-dioxide], in test [1] (setting [3]), the inhibition at 20 µM was 81 ± 25%.
In the case of `COc1ccc(CNC2=NS(=O)(=O)c3ccc(Cl)cc3N2)cc1` [Compound 20b, 6-chloro-3-((4-methoxybenzyl)amino)-4H-benzo[e][1,2,4]thiadiazine 1,1-dioxide], the “inhibition … (in words)” value in test [1] (VEGF 10 ng/mL) is given as “suppressed HUVEC proliferation; also recorded: enhanced activity”. The inhibition at 20 µM in test [1] (setting [3]) amounted to 132 ± 24%.
Regarding `O=S1(=O)N=C(NC2CCCC2)Nc2ccc(F)cc21` [Compound 22a, 7-fluoro-3-(cyclopentylamino)-4H-benzo[e][1,2,4]thiadiazine 1,1-dioxide], the “inhibition of CII” value in test [2] was “inactive”.
On to `O=S1(=O)N=C(NCCCc2ccccc2)Nc2ccccc21` [Compound 23d, 3-((3-phenylpropyl)amino)-4H-benzo[e][1,2,4]thiadiazine 1,1-dioxide], for which the inhibition at 100 µM in test [2] is 0%. Moreover, the inhibition at 20 µM in test [1] (setting [3]) stood at 39 ± 68%.
On to `O=S1(=O)N=C(NCc2ccc(C(F)(F)F)cc2)Nc2ccc(F)cc21` [Compound 25a, 7-fluoro-3-((4-(trifluoromethyl)benzyl)amino)-4H-benzo[e][1,2,4]thiadiazine 1,1-dioxide], for which the “inhibition of CII” value in test [2] is 7% and 0%.
For `O=S1(=O)N=C(NCc2ccc(C(F)(F)F)cc2)Nc2cc(Cl)ccc21` [Compound 25b, 6-chloro-3-((4-(trifluoromethyl)benzyl)amino)-4H-benzo[e][1,2,4]thiadiazine 1,1-dioxide], the inhibition at 100 µM in test [2] worked out at 19%. Further, the inhibition at 20 µM in test [1] (setting [3]) is 1 ± 43%.
As to `COc1ccccc1CNC1=NS(=O)(=O)c2ccc(Cl)cc2N1` [Compound 26b, 6-chloro-3-((2-methoxybenzyl)amino)-4H-benzo[e][1,2,4]thiadiazine 1,1-dioxide], in test [1] (setting [3]), the inhibition at 20 µM stood at 79 ± 26%.
For `Cc1ccc(CNC2=NS(=O)(=O)c3cc(F)ccc3N2)cc1` [Compound 27a, 7-fluoro-3-((4-methylbenzyl)amino)-4H-benzo[e][1,2,4]thiadiazine 1,1-dioxide], the inhibition at 100 µM in test [2] is 23%.
For `Cc1ccc(CNC2=NS(=O)(=O)c3ccc(Cl)cc3N2)cc1` [Compound 27b, 6-chloro-3-((4-methylbenzyl)amino)-4H-benzo[e][1,2,4]thiadiazine 1,1-dioxide], the inhibition at 20 µM in test [1] (setting [3]) amounted to 146 ± 18%.
`COc1cccc(CNC2=NS(=O)(=O)c3ccc(Cl)cc3N2)c1` [Compound 28b, 6-chloro-3-((3-methoxybenzyl)amino)-4H-benzo[e][1,2,4]thiadiazine 1,1-dioxide]: the inhibition at 20 µM in test [1] is 126 ± 26%.
In the case of `O=S1(=O)N=C(NCc2ccc(F)cc2F)Nc2ccc(Br)cc21` [Compound 29c, 7-bromo-3-((2,4-difluorobenzyl)amino)-4H-benzo[e][1,2,4]thiadiazine 1,1-dioxide], the inhibition at 20 µM in test [1] (setting [3]) was determined as 127%.
Take `C=CCNC1=NS(=O)(=O)c2ccc(Cl)cc2N1` [Compound 32b, 3-(allylamino)-6-chloro-4H-benzo[e][1,2,4]thiadiazine 1,1-dioxide]: in test [1] (setting [3]), the inhibition at 20 µM worked out at 0%.
Consider `O=S1(=O)N=C(NCCc2c[nH]c3ccccc23)Nc2cc(Cl)ccc21` [Compound 36b, 3-((2-(1H-indol-3-yl)ethyl)amino)-6-chloro-4H-benzo[e][1,2,4]thiadiazine 1,1-dioxide], for which, in test [2], the inhibition at 100 µM is 25%. Also, the inhibition at 20 µM in test [1] (setting [3]) is 24 ± 38%.
Turning to `COc1cccc(CCNC2=NS(=O)(=O)c3ccc(Cl)cc3N2)c1` [Compound 40b, 6-chloro-3-((3-methoxyphenethyl)amino)-4H-benzo[e][1,2,4]thiadiazine 1,1-dioxide], the inhibition at 20 µM in test [1] was 99 ± 22%.
As to `Cc1ccccc1CNC1=NS(=O)(=O)c2ccc(Cl)cc2N1` [Compound 41b, 6-Chloro-3-((2-methylbenzyl)amino)-4H-benzo[e][1,2,4]thiadiazine 1,1-dioxide], the “inhibition … (in words)” value in test [1] (VEGF 10 ng/mL) is listed as “suppressed HUVEC proliferation; also recorded: enhanced activity”. The inhibition at 20 µM in test [1] (setting [3]) was determined as 111 ± 9%.
For `CSC1=NS(=O)(=O)c2cc(F)ccc2N1C` [Compound 42a, 7-fluoro-4-methyl-3-(methylthio)-4H-benzo[e][1,2,4]thiadiazine 1,1-dioxide], the “inhibition … (in words)” value in test [1] (VEGF 10 ng/mL) is on record as “no appreciable inhibition”. Moreover, the inhibition at 20 µM in test [1] (setting [3]) amounted to 41 ± 30%.
For `Cc1cccc(CNC2=NS(=O)(=O)c3ccc(Cl)cc3N2)c1` [Compound 42b, 6-Chloro-3-((3-methylbenzyl)amino)-4H-benzo[e][1,2,4]thiadiazine 1,1-dioxide], the “inhibition … (in words)” value in test [1] (VEGF 10 ng/mL) is “suppressed HUVEC proliferation; also recorded: enhanced activity”. The inhibition at 20 µM in test [1] was 125 ± 10%.
For `O=S1(=O)N=C(NCc2ccc(F)cc2)Nc2ccc(Cl)cc21` [Compound 54e, 7-Chloro-3-((4-fluorobenzyl)amino)-4H-benzo[e][1,2,4]thiadiazine 1,1-dioxide], in test [1] (setting [3]), the inhibition at 20 µM was 70 ± 23%.
`O=S1(=O)N=C(NCCc2ccccc2)Nc2ccc(Cl)cc21` [Compound 55e, 7-Chloro-3-(phenethylamino)-4H-benzo[e][1,2,4]thiadiazine 1,1-dioxide]: the inhibition at 20 µM in test [1] was found to be 82 ± 10%.
With `O=S1(=O)N=C(NCc2ccccc2)Nc2ccc(Cl)cc21` [Compound 57e, 3-(Benzylamino)-7-chloro-4H-benzo[e][1,2,4]thiadiazine 1,1-dioxide], the “inhibition … (in words)” value in test [1] (VEGF 10 ng/mL) is reported as “suppressed HUVEC proliferation; also recorded: enhanced activity”. Besides, the inhibition at 20 µM in test [1] (setting [3]) came out at 122 ± 9%.
Regarding `O=S1(=O)N=C(NCc2ccncc2)Nc2ccc(Cl)cc21` [Compound 66e, 7-Chloro-3-((pyridin-4-ylmethyl)amino)-4H-benzo[e][1,2,4]thiadiazine 1,1-dioxide], the “inhibition … (in words)” value in test [1] (VEGF 10 ng/mL) was “suppressed HUVEC proliferation; also recorded: enhanced activity”. In test [1] (setting [3]), the inhibition at 20 µM was 67 ± 27%.
